Measured values: patent publication US20240383871A1, “COMPOUND USEFUL FOR PET-IMAGING OF BRUTON’S TYROSINE KINASE” (Bristol-Myers Squibb Company, priority 2021, published 2024)

Test: In-vivo PET imaging in rhesus monkey to determine brain penetrance
Conditions: healthy rhesus monkey
Source text: The non-human primate was kept immobilized in the extended imaging bed inside the gantry of the PET imaging system (MicroPET® P4, Siemens Preclinical Solutions, Knoxville, TN). The scanning region was a single bed position from approximately the top of skull and extending through the lower neck area, to fit into the 7.6 cm MicroPET system axial FOV. A 10-minute transmission scan was acquired using a ^57Co point source for the purpose of attenuation correction of the subsequent emission image. Approximately 0.96 mCi of [^11C]-(R)-4-(2-acryloyl-1,2,3,4-tetrahydroisoquinolin-5-yl)-5-fluoro-2,3-dimethyl-1H-indole-7-carboxamide was injected IV and a 60-minute dynamic PET image was acquired. PET images were reconstructed with a filtered back projection (FBP) or MAP algorithm with attenuation correction. Using the AMIDE software package, an ROI encompassing the whole brain was manually drawn in the PET images. Mean standardized uptake value (SUV), which is normalized with body weight (kg) and injected dose (mCi), was calculated and plotted as a function of time to obtain a TAC. […] In healthy rhesus monkey, as in WT mice. there is very low brain expression of BTK in a non-diseased state.

**Q.** With `C=C[11C](=O)N1CCc2c(cccc2-c2c(F)cc(C(N)=O)c3[nH]c(C)c(C)c23)C1` [[^11C]-(R)-4-(2-acryloyl-1,2,3,4-tetrahydroisoquinolin-5-yl)-5-fluoro-2,3-dimethyl-1H-indole-7-carboxamide] as the compound, how does the “brain time-activity curve (TAC) behaviour” value read?
**A.** rapid brain penetration followed by washout

**Q.** And the brain penetrance (baseline (PET ligand only), IV, 0-60 minutes)?
**A.** confirmed brain penetrance

**Q.** And the brain uptake pattern (summed images 0-60 minutes post injection (FIG. 7))?
**A.** Diffuse uptake was observed throughout the brain
